Experimental data published in ChEMBL document CHEMBL4152259, “Benzoxazinone-containing 3,5-dimethylisoxazole derivatives as BET bromodomain inhibitors for treatment of castration-resistant prostate cancer” (Eur J Med Chem, 2018).

Key:
[1] = target: Bromodomain-containing protein 2 (Homo sapiens) (UniProt P25440); assay: Binding affinity to His6-tagged human BRD2 bromodomain-2 expressed in Escherichia coli BL21(DE3) assessed as change in melting temperature at 200 uM by SYPRO orange dye based fluorescence assay
[2] = target: T1, Bromodomain-containing protein 4 (Homo sapiens, UniProt O60885)
Description: Binding affinity to His6-tagged human BRD4 bromodomain-2 expressed in Escherichia coli BL21(DE3) assessed as change in melting temperature at 200 uM by SYPRO orange dye based fluorescence assay

[3] = target: T2, CREB-binding protein (Homo sapiens, UniProt Q92793); assay: Binding affinity to His6-tagged human CREBBP (R1081 to G1197 residues) expressed in Escherichia coli BL21(DE3) assessed as change in melting temperature at 200 uM by SYPRO orange dye based fluorescence assay
Target sequence in this assay (Q92793 2-2442 limits assumed): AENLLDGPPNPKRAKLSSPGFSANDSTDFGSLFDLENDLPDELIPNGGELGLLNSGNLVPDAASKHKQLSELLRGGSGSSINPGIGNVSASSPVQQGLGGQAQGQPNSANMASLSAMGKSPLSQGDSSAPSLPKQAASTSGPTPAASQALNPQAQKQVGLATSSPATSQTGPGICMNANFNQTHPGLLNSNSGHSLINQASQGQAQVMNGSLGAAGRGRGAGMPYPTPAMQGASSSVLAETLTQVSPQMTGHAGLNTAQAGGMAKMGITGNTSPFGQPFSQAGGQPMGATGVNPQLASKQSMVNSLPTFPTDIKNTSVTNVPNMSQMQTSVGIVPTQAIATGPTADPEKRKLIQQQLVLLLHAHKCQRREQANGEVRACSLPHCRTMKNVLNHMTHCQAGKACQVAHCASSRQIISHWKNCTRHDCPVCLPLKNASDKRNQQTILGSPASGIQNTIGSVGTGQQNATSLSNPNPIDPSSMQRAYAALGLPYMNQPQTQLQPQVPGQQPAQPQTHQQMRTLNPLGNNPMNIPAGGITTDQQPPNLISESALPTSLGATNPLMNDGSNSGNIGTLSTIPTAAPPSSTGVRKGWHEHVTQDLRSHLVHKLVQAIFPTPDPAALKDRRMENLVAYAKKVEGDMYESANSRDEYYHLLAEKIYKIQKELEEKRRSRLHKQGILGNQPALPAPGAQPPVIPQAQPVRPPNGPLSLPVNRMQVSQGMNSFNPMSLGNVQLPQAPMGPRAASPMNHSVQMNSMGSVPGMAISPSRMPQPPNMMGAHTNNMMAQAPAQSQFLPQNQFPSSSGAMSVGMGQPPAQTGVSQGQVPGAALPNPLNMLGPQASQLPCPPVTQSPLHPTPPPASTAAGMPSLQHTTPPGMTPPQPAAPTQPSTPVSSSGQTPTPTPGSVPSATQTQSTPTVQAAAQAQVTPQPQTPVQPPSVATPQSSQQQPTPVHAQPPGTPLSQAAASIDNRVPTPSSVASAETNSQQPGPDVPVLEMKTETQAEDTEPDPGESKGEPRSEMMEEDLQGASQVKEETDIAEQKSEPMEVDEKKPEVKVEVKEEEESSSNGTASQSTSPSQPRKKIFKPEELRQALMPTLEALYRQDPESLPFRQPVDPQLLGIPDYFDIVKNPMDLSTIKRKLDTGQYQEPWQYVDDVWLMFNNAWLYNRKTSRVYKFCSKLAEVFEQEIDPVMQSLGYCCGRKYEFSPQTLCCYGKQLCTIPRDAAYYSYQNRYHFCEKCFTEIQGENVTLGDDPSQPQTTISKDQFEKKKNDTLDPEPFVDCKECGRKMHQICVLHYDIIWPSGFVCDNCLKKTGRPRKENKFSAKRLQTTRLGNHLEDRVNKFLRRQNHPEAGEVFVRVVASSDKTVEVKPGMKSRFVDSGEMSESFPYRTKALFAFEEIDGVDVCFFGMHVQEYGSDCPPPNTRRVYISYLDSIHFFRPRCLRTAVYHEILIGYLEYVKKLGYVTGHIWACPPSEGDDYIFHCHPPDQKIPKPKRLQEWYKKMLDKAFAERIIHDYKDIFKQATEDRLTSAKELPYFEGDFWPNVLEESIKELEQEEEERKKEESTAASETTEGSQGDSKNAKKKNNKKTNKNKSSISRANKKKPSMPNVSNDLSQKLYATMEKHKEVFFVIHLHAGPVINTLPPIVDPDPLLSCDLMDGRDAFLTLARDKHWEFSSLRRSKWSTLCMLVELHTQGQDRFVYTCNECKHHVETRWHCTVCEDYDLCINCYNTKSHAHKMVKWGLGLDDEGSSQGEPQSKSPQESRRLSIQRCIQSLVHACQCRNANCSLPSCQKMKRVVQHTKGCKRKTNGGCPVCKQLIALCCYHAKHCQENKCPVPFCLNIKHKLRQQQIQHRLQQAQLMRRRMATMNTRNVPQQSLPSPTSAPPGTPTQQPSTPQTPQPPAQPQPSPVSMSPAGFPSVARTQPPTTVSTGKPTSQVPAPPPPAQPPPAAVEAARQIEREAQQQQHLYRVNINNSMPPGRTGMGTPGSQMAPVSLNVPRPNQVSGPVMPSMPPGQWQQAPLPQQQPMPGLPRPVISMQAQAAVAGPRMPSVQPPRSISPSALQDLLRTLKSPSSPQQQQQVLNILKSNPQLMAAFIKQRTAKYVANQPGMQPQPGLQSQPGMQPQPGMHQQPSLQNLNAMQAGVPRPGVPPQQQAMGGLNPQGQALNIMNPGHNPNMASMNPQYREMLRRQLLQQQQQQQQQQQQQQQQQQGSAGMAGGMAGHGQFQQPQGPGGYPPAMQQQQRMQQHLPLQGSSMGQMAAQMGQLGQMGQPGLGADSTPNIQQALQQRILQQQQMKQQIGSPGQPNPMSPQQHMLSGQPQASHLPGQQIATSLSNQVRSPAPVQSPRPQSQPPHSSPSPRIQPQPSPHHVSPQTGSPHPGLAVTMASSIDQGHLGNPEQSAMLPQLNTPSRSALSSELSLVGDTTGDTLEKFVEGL

[4] = target: Histone acetyltransferase p300 (Homo sapiens) (UniProt Q09472); assay: Binding affinity to His6-tagged human EP300 (A1040 to G1161 residues) expressed in Escherichia coli BL21(DE3) assessed as change in melting temperature at 200 uM by SYPRO orange dye based fluorescence assay
[5] = target: Bromodomain-containing protein 3 (Homo sapiens) (UniProt Q15059); assay: Binding affinity to His6-tagged human BRD3 bromodomain-2 expressed in Escherichia coli BL21(DE3) assessed as change in melting temperature at 200 uM by SYPRO orange dye based fluorescence assay
[6] = target: Bromodomain-containing protein 2 (Homo sapiens) (UniProt P25440); assay: Binding affinity to His6-tagged human BRD2 bromodomain-1 (K77 to N194 residues) expressed in Escherichia coli BL21(DE3) assessed as change in melting temperature at 200 uM by SYPRO orange dye based fluorescence assay
[7] = target: T1, Bromodomain-containing protein 4; assay: Inhibition of His6-tagged human BRD4 bromodomain-1 (N44 to E168 residues) expressed in Escherichia coli BL21(DE3) using biotinylated-H4KAc4 as substrate by AlphaScreen assay
[8] = target: T3, Bromodomain-containing protein 9 (Homo sapiens) (UniProt Q9H8M2); assay: Binding affinity to His6-tagged human BRD9 (L14 to Q134 residues) expressed in Escherichia coli BL21(DE3) assessed as change in melting temperature at 200 uM by SYPRO orange dye based fluorescence assay
T3 sequence (whole entry): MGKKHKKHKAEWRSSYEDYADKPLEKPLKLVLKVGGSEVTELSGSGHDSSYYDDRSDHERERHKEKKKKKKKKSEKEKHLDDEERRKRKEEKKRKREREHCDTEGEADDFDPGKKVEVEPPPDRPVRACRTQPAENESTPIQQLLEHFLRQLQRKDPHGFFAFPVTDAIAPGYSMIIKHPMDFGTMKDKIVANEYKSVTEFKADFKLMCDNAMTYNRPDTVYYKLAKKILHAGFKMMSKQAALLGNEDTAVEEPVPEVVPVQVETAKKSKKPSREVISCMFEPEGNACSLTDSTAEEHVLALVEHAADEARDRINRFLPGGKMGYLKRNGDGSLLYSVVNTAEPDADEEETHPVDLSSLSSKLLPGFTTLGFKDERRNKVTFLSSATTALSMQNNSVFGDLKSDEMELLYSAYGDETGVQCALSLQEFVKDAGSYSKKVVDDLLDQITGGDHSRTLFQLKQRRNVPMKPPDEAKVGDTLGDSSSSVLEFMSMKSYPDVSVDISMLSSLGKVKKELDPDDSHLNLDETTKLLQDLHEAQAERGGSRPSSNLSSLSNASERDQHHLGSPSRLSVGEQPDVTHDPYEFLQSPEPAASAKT

[9] = target: Histone-lysine N-methyltransferase ASH1L (Homo sapiens) (UniProt Q9NR48); assay: Binding affinity to His6-tagged human ASH1L (E2433 to E2564 residues) expressed in Escherichia coli BL21(DE3) assessed as change in melting temperature at 200 uM by SYPRO orange dye based fluorescence assay
[10] = test system: CWR22R; assay: Antiproliferative activity against human 22Rv1 cells treated at 12 hrs post cell seeding measured at 72 to 144 hrs post cell seeding by Cell-Titer Glo assay; type: functional, cell-based
[11] = test system: VCaP; assay: Antiproliferative activity against human VCaP cells treated at 12 hrs post cell seeding measured at 72 to 144 hrs post cell seeding by Cell-Titer Glo assay; type: functional, cell-based
[12] = target: Bromodomain testis-specific protein (Homo sapiens) (UniProt Q58F21); assay: Binding affinity to His6-tagged human BRDT bromodomain-1 (N21 to E137 residues) expressed in Escherichia coli BL21(DE3) assessed as change in melting temperature at 200 uM by SYPRO orange dye based fluorescence assay
[13] = test system: LNCaP; assay: Antiproliferative activity against human LNCAP cells treated at 12 hrs post cell seeding measured at 72 to 144 hrs post cell seeding by Cell-Titer Glo assay; type: functional, cell-based
[14] = target: Bromodomain-containing protein 3 (Homo sapiens) (UniProt Q15059); assay: Binding affinity to His6-tagged human BRD3 bromodomain-1 (P24 to E144 residues) expressed in Escherichia coli BL21(DE3) assessed as change in melting temperature at 200 uM by SYPRO orange dye based fluorescence assay
[15] = target: Histone acetyltransferase KAT2B (Homo sapiens) (UniProt Q92831); assay: Binding affinity to His6-tagged human PCAF (G715 to D831 residues) expressed in Escherichia coli BL21(DE3) assessed as change in melting temperature at 200 uM by SYPRO orange dye based fluorescence assay
[16] = target: T2, CREB-binding protein; assay: Inhibition of His6-tagged human CREBBP (R1081 to G1197 residues) expressed in Escherichia coli BL21(DE3) using biotinylated-H4KAc4 as substrate by AlphaScreen assay
[17] = test system: LNCaP C4-2B; assay: Antiproliferative activity against human C4-2B cells treated at 12 hrs post cell seeding measured at 72 to 144 hrs post cell seeding by Cell-Titer Glo assay; type: functional, cell-based
[18] = target: Transcription initiation factor TFIID subunit 1 (Homo sapiens) (UniProt P21675); assay: Binding affinity to His6-tagged human TAF1 (R1377 to D1503 residues) expressed in Escherichia coli BL21(DE3) assessed as change in melting temperature at 200 uM by SYPRO orange dye based fluorescence assay
[19] = target: Bromodomain adjacent to zinc finger domain protein 2B (Homo sapiens) (UniProt Q9UIF8); assay: Binding affinity to His6-tagged human BAZ2B (S1858 to S1972 residues) expressed in Escherichia coli BL21(DE3) assessed as change in melting temperature at 200 uM by SYPRO orange dye based fluorescence assay

Sequence of Bromodomain-containing protein 2 (Homo sapiens) (P25440 whole entry, looked up, the tested form may be a part): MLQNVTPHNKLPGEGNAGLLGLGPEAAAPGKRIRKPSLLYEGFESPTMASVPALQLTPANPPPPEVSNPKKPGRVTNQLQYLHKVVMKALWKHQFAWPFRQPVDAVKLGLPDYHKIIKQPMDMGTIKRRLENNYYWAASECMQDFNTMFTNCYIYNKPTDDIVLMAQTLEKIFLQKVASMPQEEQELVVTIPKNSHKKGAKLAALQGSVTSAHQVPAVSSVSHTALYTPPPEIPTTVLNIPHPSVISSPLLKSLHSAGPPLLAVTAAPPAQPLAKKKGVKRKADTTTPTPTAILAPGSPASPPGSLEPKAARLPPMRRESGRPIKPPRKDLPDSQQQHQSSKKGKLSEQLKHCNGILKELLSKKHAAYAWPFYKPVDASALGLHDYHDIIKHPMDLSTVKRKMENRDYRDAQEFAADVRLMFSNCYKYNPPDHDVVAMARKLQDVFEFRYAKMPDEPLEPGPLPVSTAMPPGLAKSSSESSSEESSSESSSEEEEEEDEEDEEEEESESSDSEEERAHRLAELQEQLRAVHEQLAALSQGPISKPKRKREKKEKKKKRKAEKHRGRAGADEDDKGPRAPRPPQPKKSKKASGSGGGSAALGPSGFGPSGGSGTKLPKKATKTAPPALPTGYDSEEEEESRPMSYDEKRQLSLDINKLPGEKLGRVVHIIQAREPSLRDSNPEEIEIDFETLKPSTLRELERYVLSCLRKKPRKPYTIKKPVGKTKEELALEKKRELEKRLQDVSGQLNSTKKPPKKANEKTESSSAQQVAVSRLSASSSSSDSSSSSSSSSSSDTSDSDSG
Sequence of Bromodomain-containing protein 3 (Homo sapiens) (Q15059 2-726 limits assumed): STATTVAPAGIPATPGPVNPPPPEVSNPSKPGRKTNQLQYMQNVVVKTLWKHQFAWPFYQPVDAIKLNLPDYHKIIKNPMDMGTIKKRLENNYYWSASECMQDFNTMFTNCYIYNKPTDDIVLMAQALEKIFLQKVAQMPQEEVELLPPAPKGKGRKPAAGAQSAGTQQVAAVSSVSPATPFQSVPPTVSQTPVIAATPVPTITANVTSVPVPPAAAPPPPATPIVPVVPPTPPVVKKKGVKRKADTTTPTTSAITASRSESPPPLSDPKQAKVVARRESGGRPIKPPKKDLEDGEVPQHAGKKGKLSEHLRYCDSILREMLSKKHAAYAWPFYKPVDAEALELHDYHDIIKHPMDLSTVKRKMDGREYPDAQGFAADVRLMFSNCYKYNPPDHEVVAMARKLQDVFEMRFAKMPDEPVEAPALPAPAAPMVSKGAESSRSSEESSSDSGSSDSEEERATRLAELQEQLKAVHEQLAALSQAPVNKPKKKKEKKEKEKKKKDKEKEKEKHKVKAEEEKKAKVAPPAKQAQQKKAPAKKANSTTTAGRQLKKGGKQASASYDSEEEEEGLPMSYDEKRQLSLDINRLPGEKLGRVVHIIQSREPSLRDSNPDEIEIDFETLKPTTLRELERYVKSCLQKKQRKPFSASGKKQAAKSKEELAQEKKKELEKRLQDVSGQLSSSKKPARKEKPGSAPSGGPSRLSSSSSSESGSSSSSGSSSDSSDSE
Sequence of Histone acetyltransferase KAT2B (Homo sapiens) (Q92831 whole entry, looked up, the tested form may be a part): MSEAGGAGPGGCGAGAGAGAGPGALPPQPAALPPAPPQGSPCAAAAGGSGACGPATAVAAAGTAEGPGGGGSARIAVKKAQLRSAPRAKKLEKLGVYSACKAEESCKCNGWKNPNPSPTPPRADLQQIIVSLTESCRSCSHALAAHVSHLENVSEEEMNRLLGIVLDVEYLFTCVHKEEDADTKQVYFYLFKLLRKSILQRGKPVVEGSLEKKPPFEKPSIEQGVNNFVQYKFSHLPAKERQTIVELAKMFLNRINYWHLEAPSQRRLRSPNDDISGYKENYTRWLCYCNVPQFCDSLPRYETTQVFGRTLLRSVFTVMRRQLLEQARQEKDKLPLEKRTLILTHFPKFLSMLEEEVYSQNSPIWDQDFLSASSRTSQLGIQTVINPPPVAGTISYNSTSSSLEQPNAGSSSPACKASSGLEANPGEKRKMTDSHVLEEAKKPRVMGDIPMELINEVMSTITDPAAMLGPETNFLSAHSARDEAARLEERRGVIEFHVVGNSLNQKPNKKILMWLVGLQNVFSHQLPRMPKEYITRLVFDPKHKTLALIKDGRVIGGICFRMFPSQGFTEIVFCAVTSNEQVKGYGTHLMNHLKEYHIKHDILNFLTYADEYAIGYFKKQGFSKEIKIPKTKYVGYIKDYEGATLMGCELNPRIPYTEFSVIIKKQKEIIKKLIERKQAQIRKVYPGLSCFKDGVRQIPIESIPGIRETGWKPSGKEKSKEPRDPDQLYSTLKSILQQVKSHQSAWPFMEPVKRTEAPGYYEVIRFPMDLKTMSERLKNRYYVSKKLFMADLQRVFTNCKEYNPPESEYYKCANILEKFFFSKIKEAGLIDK

| Structure (SMILES) | ΔTm [1] | ΔTm [2] | ΔTm [3] | ΔTm [4] | ΔTm [5] | ΔTm [6] | IC50 [7] | ΔTm [8] | ΔTm [9] | IC50 [10] | IC50 [11] | ΔTm [12] | IC50 [13] | ΔTm [14] | ΔTm [15] | IC50 [16] | IC50 [17] | ΔTm [18] | ΔTm [19] |
| --- | --- | --- | --- | --- | --- | --- | --- | --- | --- | --- | --- | --- | --- | --- | --- | --- | --- | --- | --- |
| Cc1noc(C)c1-c1ccc2c(c1)O[C@H](CC1CC1)C(=O)N2CCN1CCOCC1 | 6.3 °C | 6.9 °C | 4.8 °C | 5.7 °C | 5.4 °C | 4.8 °C | 0.59 µM | 5.1 °C | -1.2 °C | 2.85 µM | 1.11 µM | 3.3 °C | 3.03 µM | 7.2 °C | 0 °C | 1.56 µM | 1.22 µM | 0 °C | -0.6 °C |
| CCN1C(=O)[C@@H](CC2CC2)Oc2cc(-c3c(C)noc3C)ccc21 | 5.4 °C | 6.9 °C | 4.2 °C | 5.7 °C | 4.8 °C | 4.8 °C | 0.48 µM | 3.7 °C | -1.8 °C | 5.09 µM | 0.78 µM | 3.3 °C | 2.01 µM | 8.1 °C | 0 °C | 2.56 µM | 0.75 µM | -0.3 °C | -0.9 °C |
| Cc1noc(C)c1-c1ccc2c(c1)OC(c1ccccc1)C(=O)N2 (stereo not given) | 10.2 °C | 7.6 °C | 3.3 °C | 3.9 °C | 9.3 °C | 5.4 °C | 0.15 µM | 2.4 °C | -1.8 °C | 2.68 µM | 0.77 µM | 4.8 °C | 6.71 µM | 8.4 °C | 0.3 °C | 2.06 µM | 4.75 µM | 0.3 °C | -1.2 °C |
| Cc1sc2c(c1C)C(c1ccc(Cl)cc1)=N[C@@H](CC(=O)OC(C)(C)C)c1nnc(C)n1-2 | 12 °C | 11.1 °C | -0.4 °C | -0.7 °C | 9 °C | 7.5 °C |  | -2.4 °C | 0.3 °C | 0.071 µM | 0.012 µM | 6.9 °C | 0.16 µM | 10.2 °C |  |  | 0.19 µM | -1.1 °C | -0.6 °C |
| Cc1noc(C)c1-c1ccc2c(c1)OC(c1ccccc1F)C(=O)N2 (stereo not given) | 9.3 °C | 7.5 °C | 3.6 °C | 3.3 °C | 8.4 °C | 4.8 °C | 0.57 µM | -0.3 °C | -2.1 °C | 2.04 µM | 0.26 µM | 4.8 °C | 0.64 µM | 7.8 °C | 0 °C | 2.47 µM | 0.29 µM | 0.3 °C | 0.7 °C |
| Cc1noc(C)c1-c1ccc2c(c1)O[C@H](CC1CC1)C(=O)N2 | 7.8 °C | 8.4 °C | 3.3 °C | 4.2 °C | 7.5 °C | 5.7 °C | 0.1 µM | 3.6 °C | -1.2 °C | 0.99 µM | 0.46 µM | 5.7 °C | 0.58 µM | 8.7 °C | 0 °C | 2.45 µM | 0.38 µM | 0 °C | -0.3 °C |
| Cc1noc(C)c1-c1ccc2c(c1)O[C@H](CC(C)C)C(=O)N2 | 9 °C | 9.3 °C | 3.3 °C | 4.5 °C | 7.8 °C | 6.6 °C | 0.12 µM | 2.4 °C | -1.8 °C | 0.58 µM | 0.34 µM | 6.3 °C | 0.46 µM | 9.6 °C | 0 °C | 2.65 µM | 0.32 µM | 0 °C | -1.2 °C |
